Measured values: US11426454B2 (priority 2018, dated 2022)

System: live BCG bacteria
Format: in vivo, C57BL/6 mice
Conditions: 0.1 mL (approximately 10^6 CFU/mL) under the armpits; isoniazid by gavage; 2×10^6 live BCG challenge one week later; week 4

**Q.** `NNC(=O)c1ccncc1` [Isoniazid, isoniazid] was tested. Which “Colony count of lung tissues (CFU)” value did it give?
**A.** 34000 ± 13115 CFU

**Q.** What about the “Colony count of spleen tissues (CFU)” value of the same compound?
**A.** 6733 ± 2969 CFU
